In US8247211B2, “Glycopeptide antibiotics” (American Cyanamid Company, priority 2001, dated 2012):
≈ marks a conversion by molar mass, not a printed value.

Tests used:
Assay in all cases: In vitro antibacterial evaluation: minimum inhibitory concentration (MIC), broth dilution method
Format in all cases: cell-based
Streptococcus sp. = conditions: 18 hours at 35° C.
How it was run: (§1)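 MIC read as lowest drug level preventing visible growth. Organisms at 5×10^5 CFU/mL were exposed to a 64-0.06 μg/mL dilution series in Muller-Hinton II […] following NCCLS broth dilution standard M7-A2.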

Staphylococcus sp. = tested on: Staphylococcus sp.
How it was run: as §1

Enterococcus sp. = conditions: 18 hours at 35° C.
How it was run: as §1

Escherichia coli = conditions: 18 hours at 35° C.
How it was run: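 An MIC is reported for each organism as the least concentration giving inhibition, using broth dilution over 64-0.06 μg/mL with a 5×10^5 CFU/mL inoculum.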

[1] = broth dilution, inoculum 5×10^5 CFU/mL

CC(c1ccccc1)C1NC(=O)CNC(=O)C(CO)NC(=O)C(C(O)C2CNC(=N)N2C2OC(CO)C(O)C(O)C2O)NC(=O)C(C(O)C2CNC(=N)N2)NC(=O)C(Cc2ccc(OC3OC(CO)C(OC4OC5COC6(CCCCC6(C)C)OC5C(O)C4O)C(O)C3O)cc2)NC1=O (stereo not drawn) [Example 205, Cyclo[glycyl-β-methylphenylalanyl-O-[4-O-[4,6-O-(2,2-dimethylcyclohexylidene)hexopyranosyl]hexopyranosyl]tyrosyl-3-(2-iminoimidazolidin-4-yl)seryl-3-(3-hexopyranosyl-2-iminoimidazolidin-4-yl)serylseryl]]
MIC Streptococcus agalactiae (GC 4564) (Streptococcus sp.; Streptococcus agalactiae (GC 4564)): <0.12 µg/mL | MIC Streptococcus pneumoniae (ATCC 6301) (Streptococcus sp.; Streptococcus pneumoniae (ATCC 6301)): <0.12 µg/mL | MIC Streptococcus pneumoniae (GC 1894) (Streptococcus sp.; Streptococcus pneumoniae (GC 1894)): <0.12 µg/mL | MIC Streptococcus pneumoniae (GC 4565) (Streptococcus sp.; Streptococcus pneumoniae (GC 4565)): <0.12 µg/mL | MIC Streptococcus pyogenes (GC 4563) (Streptococcus sp.; Streptococcus pyogenes (GC 4563)): <0.12 µg/mL | MIC Streptococcus agalactiae (GC 4564) (Streptococcus sp.; [1]): <0.12 µg/mL | MIC Streptococcus pneumoniae (ATCC 6301) (Streptococcus sp.; [1]): <0.12 µg/mL | MIC Streptococcus pneumoniae (GC 1894) (Streptococcus sp.; [1]): <0.12 µg/mL | MIC Streptococcus pneumoniae (GC 4565) (Streptococcus sp.; [1]): <0.12 µg/mL | MIC Streptococcus pyogenes (GC 4563) (Streptococcus sp.; [1]): <0.12 µg/mL | MIC Staphylococcus aureus (ATCC 29213) (Staphylococcus sp.; strain ATCC 29213): 2 µg/mL (≈ 1.43 µM) | MIC Staphylococcus aureus (GC 1131) (Staphylococcus sp.; strain GC 1131): 2 µg/mL (≈ 1.43 µM) | MIC Staphylococcus aureus (GC 3051) (Staphylococcus sp.; strain GC 3051): 2 µg/mL (≈ 1.43 µM) | MIC Staphylococcus aureus (GC 3053) (Staphylococcus sp.; strain GC 3053): 2 µg/mL (≈ 1.43 µM) | MIC Staphylococcus aureus (GC 4541) (Staphylococcus sp.; strain GC 4541): 2 µg/mL (≈ 1.43 µM) | MIC Staphylococcus aureus (GC 4542) (Staphylococcus sp.; strain GC 4542): 2 µg/mL (≈ 1.43 µM) | MIC Staphylococcus aureus-SMITH (GC 4543) (Staphylococcus sp.; strain GC 4543): 2 µg/mL (≈ 1.43 µM) | MIC Staphylococcus aureus (GC 4544) (Staphylococcus sp.; strain GC 4544): 2 µg/mL (≈ 1.43 µM) | MIC Staphylococcus aureus (GC 4545) (Staphylococcus sp.; strain GC 4545): 2 µg/mL (≈ 1.43 µM) | MIC Staphylococcus haemolyticus (GC 4546) (Staphylococcus sp.; strain GC 4546): 2 µg/mL (≈ 1.43 µM) | MIC Coagulase Negative Staphylococcus (GC 4547) (Staphylococcus sp.; strain GC 4547): 2 µg/mL (≈ 1.43 µM) | MIC Coagulase Negative Staphylococcus (GC 4548) (Staphylococcus sp.; strain GC 4548): 1 µg/mL (≈ 0.713 µM) | MIC Coagulase Negative Staphylococcus (GC 4549) (Staphylococcus sp.; strain GC 4549): 1 µg/mL (≈ 0.713 µM) | MIC Coagulase Negative Staphylococcus (GC 4551) (Staphylococcus sp.; strain GC 4551): 2 µg/mL (≈ 1.43 µM) | MIC Enterococcus avium (GC 4558) (Enterococcus sp.; Enterococcus avium (GC 4558)): 4 µg/mL (≈ 2.85 µM) | MIC Enterococcus faecalis (ATCC 29212) (Enterococcus sp.; Enterococcus faecalis (ATCC 29212)): 2 µg/mL (≈ 1.43 µM) | MIC Enterococcus faecalis (GC 2242) (Enterococcus sp.; Enterococcus faecalis (GC 2242)): 4 µg/mL (≈ 2.85 µM) | MIC Enterococcus faecalis (GC 2691) (Enterococcus sp.; Enterococcus faecalis (GC 2691)): 4 µg/mL (≈ 2.85 µM) | MIC Enterococcus faecalis (GC 3059) (Enterococcus sp.; Enterococcus faecalis (GC 3059)): 2 µg/mL (≈ 1.43 µM) | MIC Enterococcus faecalis (GC 4552) (Enterococcus sp.; Enterococcus faecalis (GC 4552)): 4 µg/mL (≈ 2.85 µM) | MIC Enterococcus faecalis (GC 4553) (Enterococcus sp.; Enterococcus faecalis (GC 4553)): 2 µg/mL (≈ 1.43 µM) | MIC Enterococcus faecalis (GC 4554) (Enterococcus sp.; Enterococcus faecalis (GC 4554)): 4 µg/mL (≈ 2.85 µM) | MIC Enterococcus faecalis (GC 6189) (Enterococcus sp.; Enterococcus faecalis (GC 6189)): 2 µg/mL (≈ 1.43 µM) | MIC Enterococcus faecium (GC 2243) (Enterococcus sp.; Enterococcus faecium (GC 2243)): 2 µg/mL (≈ 1.43 µM) | MIC Enterococcus faecium (GC 4556) (Enterococcus sp.; Enterococcus faecium (GC 4556)): 2 µg/mL (≈ 1.43 µM) | MIC Enterococcus faecium (GC 4557) (Enterococcus sp.; Enterococcus faecium (GC 4557)): 4 µg/mL (≈ 2.85 µM) | MIC Enterococcus avium (GC 4558) (Enterococcus sp.; [1]): 4 µg/mL (≈ 2.85 µM) | MIC Enterococcus faecalis (ATCC 29212) (Enterococcus sp.; [1]): 2 µg/mL (≈ 1.43 µM) | MIC Enterococcus faecalis (GC 2242) (Enterococcus sp.; [1]): 4 µg/mL (≈ 2.85 µM) | MIC Enterococcus faecalis (GC 2691) (Enterococcus sp.; [1]): 4 µg/mL (≈ 2.85 µM) | MIC Enterococcus faecalis (GC 3059) (Enterococcus sp.; [1]): 2 µg/mL (≈ 1.43 µM) | MIC Enterococcus faecalis (GC 4552) (Enterococcus sp.; [1]): 4 µg/mL (≈ 2.85 µM) | MIC Enterococcus faecalis (GC 4553) (Enterococcus sp.; [1]): 2 µg/mL (≈ 1.43 µM) | MIC Enterococcus faecalis (GC 4554) (Enterococcus sp.; [1]): 4 µg/mL (≈ 2.85 µM) | MIC Enterococcus faecalis (GC 6189) (Enterococcus sp.; [1]): 2 µg/mL (≈ 1.43 µM) | MIC Enterococcus faecium (GC 2243) (Enterococcus sp.; [1]): 2 µg/mL (≈ 1.43 µM) | MIC Enterococcus faecium (GC 4556) (Enterococcus sp.; [1]): 2 µg/mL (≈ 1.43 µM) | MIC Enterococcus faecium (GC 4557) (Enterococcus sp.; [1]): 4 µg/mL (≈ 2.85 µM) | MIC Escherichia coli (ATCC 25922) (Escherichia coli; Escherichia coli (ATCC 25922)): 64 µg/mL (≈ 45.6 µM) | MIC Escherichia coli (GC 4560) (Escherichia coli; Escherichia coli (GC 4560)): 1 µg/mL (≈ 0.713 µM)
